Series [1] concerns the target T1, human ERα (Homo sapiens, UniProt P03372).
T1 construct: expressed in transfected cells; host or cells: HAECT-1 cells (immortalized human aortic endothelial cells) infected with Ad5-wt-hERα adenovirus
T1 sequence (P03372 1-595): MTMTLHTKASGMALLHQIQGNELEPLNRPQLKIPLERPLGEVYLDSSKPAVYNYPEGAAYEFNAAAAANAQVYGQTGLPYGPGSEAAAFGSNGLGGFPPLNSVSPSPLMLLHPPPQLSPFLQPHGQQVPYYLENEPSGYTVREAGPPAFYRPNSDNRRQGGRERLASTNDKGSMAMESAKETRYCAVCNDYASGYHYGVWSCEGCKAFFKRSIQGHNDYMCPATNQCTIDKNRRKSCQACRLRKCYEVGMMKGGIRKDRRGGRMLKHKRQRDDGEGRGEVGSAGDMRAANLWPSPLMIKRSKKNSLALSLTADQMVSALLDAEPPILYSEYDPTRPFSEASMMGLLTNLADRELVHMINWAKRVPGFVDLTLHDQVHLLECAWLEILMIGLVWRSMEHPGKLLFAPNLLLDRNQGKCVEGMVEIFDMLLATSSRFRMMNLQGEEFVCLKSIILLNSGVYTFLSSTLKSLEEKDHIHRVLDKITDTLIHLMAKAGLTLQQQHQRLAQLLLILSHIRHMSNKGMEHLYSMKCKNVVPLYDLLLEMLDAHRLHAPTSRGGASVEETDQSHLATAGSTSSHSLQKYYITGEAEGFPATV
Nature of the series: IL-6 luciferase (IL6-luc) assay in ERα infected HAECT-1 cells. It counts as cell-based. As to conditions: for IC50: ERα infected HAECT-1 cells, IL-1β, Ad5-IL-6(1250 bp).Luc virus, 15-20 h; for IL6-luc (% E2): efficacy relative to E2, value in parentheses after the IC50. The method, then: (§1) After four hours, cells were washed with EBM-BSA and incubated overnight in the same medium. Following overnight incubation, cells were washed with EBM-BSA and infected for 2 hours with 6 ml of a 1:10 dilution of Ad5-3x(NFκB).Luc virus (Adenovirus luciferase expression vector driven by 3 repeats of the MHC NFκb site 5′ to the thymidine kinase promoter) in EBM-BSA. After two hours, cells were washed and incubated at 34° C. for 1 hour. […] Control (no ER infection) cells were processed as above without Ad5-wt-hERα virus infection.
(§2) ERα infected HAECT-1 cells or control cells were thawed, diluted 42× in warm EBM-BSA, plated into 96-well plates at 0.1 ml/well and incubated for 4 h at 34° C. […] After 15-20 h, cells are lysed with 50 ul of Promega Cell Culture Lysis reagent for ˜5 min at room temp on shaker. After lysing, 15 ul of lysate is transferred to luminometer plates for luciferase determination. […] Creatine kinase was determined from the rate of increase in A340 following addition of 100 uL of CK assay reagent (Sigma, cat. No 47-10) to the remainder of the cell lysate.
(§3) For IC50 and EC50 calculations, mean IL-6, luciferase or CK values versus log10 of the compound concentration were fitted to a four parameter logistic equation. The IC50/EC50 value, ‘Hill slope’, upper and lower limits of the curve were iteratively estimated.

For series [2], the target named is T1, human ERα. Nature of the series: Creatine kinase (CK) assay in ERα infected HAECT-1 cells. It counts as cell-based. As to conditions: for EC50: creatine kinase in lysate of ERα infected HAECT-1 cells; for CK (% E2): efficacy relative to E2, value in parentheses after the EC50. How it is done:
as §1, §2, §3

Consider 10 compounds from patent US7585871B2, “Phenanthridine carbonyl phenols” (Wyeth, priority 2004, dated 2009).

As for `CC[C@@H]1c2cc(F)ccc2-c2ccccc2N1C(=O)c1ccc(O)cc1O` [Example 22, 4-{[(6R)-6-ethyl-8-fluorophenanthridin-5(6H)-yl]carbonyl}benzene-1,3-diol], the melting point (usually the temperature of the solid-liquid transition) was in the range of 98 to 100 °C. Moreover, at human ERα [1], inhibition was half-maximal at 2 nM (IC50) and the “IL6-luc (% E2)” value worked out at 106%. On human ERα [2], the EC50 – broadly, the concentration at which the effect is half-maximal – was determined as 3 nM and the “CK (% E2)” value is 38%.

Turning to `CC1c2cc(F)ccc2-c2ccc(F)cc2N1C(=O)c1ccc(O)cc1` (racemic) [Example 42, 4-[(3,8-difluoro-6-methylphenanthridin-5(6H)-yl)carbonyl]phenol], the melting point is 193 to 195 °C. Moreover, on human ERα [1], the IC50 (commonly the concentration at which inhibition is half-maximal) is 4.5 nM and the “IL6-luc (% E2)” value is reported as 95%. In addition, on human ERα [2], the response was half-maximal at 90 nM (EC50) and the “CK (% E2)” value turned out to be 37%.

`C[C@@H]1c2ccccc2-c2ccc(Cl)cc2N1C(=O)c1ccc(O)cc1` [Example 28, 4-{[(6R)-3-chloro-6-methylphenanthridin-5(6H)-yl]carbonyl}phenol] had a melting point of 273.5 to 276 °C. At human ERα [1], the IC50 was 6 nM and the “IL6-luc (% E2)” value stood at 120%. Besides, at human ERα [2], the EC50 was 69 nM and the “CK (% E2)” value is 32%.

The compound `CC[C@@H]1c2cc(F)ccc2-c2ccccc2N1C(=O)c1cccc(O)c1` [Example 21, 3-{[(6R)-6-ethyl-8-fluorophenanthridin-5(6H)-yl]carbonyl}phenol] gave a melting point of 101 to 102 °C. Besides, at human ERα [1], the IC50 amounted to 40 nM and the “IL6-luc (% E2)” value was found to be 134%. The “CK (% E2) at a single concentration” value on human ERα [2] (@ 1 μM) is given as 50% @ 1 μM.

In turn, `C[C@@H]1c2ccccc2-c2ccc(F)cc2N1C(=O)c1ccc(O)cc1` (single isomer, unassigned) [Example 37] showed a melting point of 235.7 to 236.8 °C. Moreover, on human ERα [1], the IC50 is 6 nM and the “IL6-luc (% E2)” value was determined as 114%. At human ERα [2], the concentration giving a half-maximal response (EC50) is 28 nM and the “CK (% E2)” value amounted to 20%.

`C[C@@H]1c2ccccc2-c2ccc(F)cc2N1C(=O)c1ccc(O)cc1O` (single isomer, unassigned) [Example 40] returned a melting point of 184 to 187 °C. For the same compound, at human ERα [1], inhibition was half-maximal at 1 nM (IC50) and the “IL6-luc (% E2)” value amounted to 107%. Besides, at human ERα [2], the EC50 amounted to 8 nM and the “CK (% E2)” value came out at 20%.

Consider `C[C@@H]1c2ccccc2-c2ccc(Cl)cc2N1C(=O)c1cccc(O)c1` [Example 25, 3-{[(6R)-3-chloro-6-methylphenanthridin-5(6H)-yl]carbonyl}phenol], for which, at human ERα [1], the IC50 was 9 nM and the “IL6-luc (% E2)” value is recorded as 103%. Further, at human ERα [2], the EC50 was determined as 141 nM and the “CK (% E2)” value amounted to 26%.

With `C[C@@H]1c2cc(F)ccc2-c2ccccc2N1C(=O)c1ccc(Cl)c(O)c1` [Example 11, 2-chloro-5-{[(6R)-8-fluoro-6-methylphenanthridin-5(6H)-yl]carbonyl}phenol], at human ERα [1], the IC50 worked out at 271 nM and the “IL6-luc (% E2)” value was found to be 107%. On human ERα [2], the EC50 turned out to be 307 nM and the “CK (% E2)” value is listed as −29%.

For the compound `C[C@@H]1c2cc(F)ccc2-c2ccccc2N1C(=O)c1cccc(O)c1` [Example 4, 3-{[(6R)-8-fluoro-6-methylphenanthridin-5(6H)-yl]carbonyl}phenol], the melting point stood at 162 °C. Besides, at human ERα [1], the midpoint of inhibition, the IC50, lay at 47 nM and the “IL6-luc (% E2)” value is given as 102%.

Regarding `C[C@H]1c2ccccc2-c2ccc(Cl)cc2N1C(=O)c1ccc(O)cc1` [Example 29, 4-{[(6S)-3-chloro-6-methylphenanthridin-5(6H)-yl]carbonyl}phenol], the melting point was 273.7 to 276 °C. Further, at human ERα [1], the concentration for half-maximal inhibition (IC50) amounted to 1000 nM and the “IL6-luc (% E2)” value is given as 75%.
